Reference: patent US4978663A, “5-(1-aminocyclohexyl)-2(1H)-pyridinone compounds which have pharmaceutical utility” (priority 1989, dated 1990)

What was measured:
[1] = 2-phenyl-1,4-benzoquinone-induced writhing test in mice (PQW), analgesic activity; type: in vivo
[2] = Dark Avoidance Assay (reversal of scopolamine induced memory deficit); type: in vivo; details: mice, s.c., retest after 24 hours
Description: In this assay mice are tested for their ability to remember an unpleasant stimulus for a period of 24 hours. A mouse is placed in a chamber that contains a dark compartment; a strong incadescent light drives it to the dark compartment, where an electric shock is administered through metal plates on the floor. The animal is removed from the testing apparatus and tested again, 24 hours later, for the ability to remember the electric shock.
If scopolamine, an anticholinergic that is known to cause memory impairment, is administered before an animal's initial exposure to the test chamber, the animal re-enters the dark compartment shortly after being placed in the test chamber 24 hours later.

SMILES | Analgesic PQW, % Inhibition of Writhing at 20 mg/kg., s.c. [1] [%] | also measured
CC(=O)NC1(c2ccc(=O)n(C)c2)CCC(C(C)(C)C)CC1 (stereo not drawn) [cis-N-[1-(1,6-Dihydro-1-methyl-6-oxo-3-pyridinyl)-4-(1,1-dimethylethyl)cyclohexyl]acetamide] | 47 | % of animals with scopolamine induced memory deficit reversal ([2]; 1.3 mg/kg): 33%
CNC(=O)Oc1ccc2c(c1)[C@]1(C)CCN(C)[C@@H]1N2C [Physostigmine, reference compound] |  | % of animals with scopolamine induced memory deficit reversal ([2]; 0.31 mg/kg): 20%
NC1(c2ccc(=O)n(CC#CCN3CCCC3)c2)CCCCC1 [5-(1-Aminocyclohexyl)-1-[4-(pyrrolidin-1-yl)-2-butynyl]-2(1H)-pyridinone] | 53 | 
Cl.NC1(c2ccc(=O)n(Cc3ccccc3)c2)CCCCC1 [5-(1-Aminocyclohexyl)-1-(phenylmethyl)-2(1H)-pyridinone hydrochloride] | 42 | % of animals with scopolamine induced memory deficit reversal ([2]; 0.16 mg/kg): 20%
CC(=O)NC1(c2ccc(=O)[nH]c2)CCCCC1 [N-[1-(1,6-Dihydro-6-oxo-3-pyridinyl)cyclohexyl]acetamide] | 58 | 
O=C(CN1CCC(C(=O)c2ccc(F)cc2)CC1)NC1(c2ccc(=O)[nH]c2)CCCCC1 [N-[1-(1,6-Dihydro-6-oxo-3-pyridinyl)cyclohexyl][4-(4-fluorobenzoyl)]-1-piperidineacetamide] | 77 | 
CC(=O)NC1(c2ccc(=O)n(C)c2)CCCCC1 [N-[1-(1,6-Dihydro-1-methyl-6-oxo-3-pyridinyl)cyclohexyl]acetamide] |  | % of animals with scopolamine induced memory deficit reversal ([2]; 0.63 mg/kg): 33%
CC1(C)CCC(N)(c2ccc(=O)[nH]c2)CC1.Cl [5-(1-Amino-4,4-dimethylcyclohexyl)-2(1H)-pyridinone hydrochloride] | 62 | % of animals with scopolamine induced memory deficit reversal ([2]; 2.5 mg/kg): 20%
CCC(=O)O[C@](Cc1ccccc1)(c1ccccc1)[C@H](C)CN(C)C [Propoxyphene, reference compound] |  | Analgesic PQW, % Inhibition of Writhing ([1]; 3.9 mg/kg, s.c.): 50%
O=C(NC1(c2ccc(=O)[nH]c2)CCCCC1)c1ccccc1 [N-[1-(1,6-Dihydro-6-oxo-3-pyridinyl)cyclohexyl]benzamide] | 72 | 
